Assay: Ultimate aerobic biodegradability in aqueous medium (OECD 301 A)
Conditions: on the fourteenth day
Protocol: This test is an evaluation in an aqueous medium of the ultimate aerobic biodegradability of a sample of the concentrated formulation according to the invention. This test is performed according to the provisions of the OECD 301 A method using a sample containing a dissolved organic carbon content of 10 mg/l (DOC for dissolved organic carbon). The evolution of the disappearance of dissolved organic carbon is followed during a period of 28 days in the “Concentrated disinfection” test at 10 mg/l of DOC. The physical-chemical analysis is performed according to the ASTM […] standard. The attached FIG. 1 represents the resulting curves of degradation of the organic carbon dissolved after 28 days. The reference substance corresponds to sodium acetate.

CC(=O)[O-].[Na+] [sodium acetate]
percentage of degradation of the reference substance: 99%

Reference: patent US20170035049A1, “BIOCIDAL PRODUCTS” (SALVECO, priority 2014, published 2017)
